Among the data in PubChem BioAssay (NCI) are TGI values, retold here.

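Values below derive from 48-hour exposures of cells grown in 96-well plates, with endpoints linearly interpolated between the two concentrations bracketing the appropriate inhibition level. TGI: total growth inhibition.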 *1 amine or outer side, *2 acyl side, *3 side chain or, on linkers, in order; H or OH if unused. Where a SMILES comes first, the peptide text is derived from it. [ ]: non-standard residue; d: D form. X32 = C[C@H](N[*:1])C(=O)C(C)(C)C(=O)[*:2]; Hmpa(2S,3S) = CC[C@H](C)[C@H](O)C(=O)O; NMeY = CN[C@@H](Cc1ccc(O)cc1)C(=O)O; NMeL = CN[C@@H](CC(C)C)C(=O)O; NMeV = CN[C@H](C(=O)O)C(C)C; βAla = NCCC(=O)O

Holding throughout (experiment): NCI anticancer screen, dose series, 48 h
The subject of assay [1] is 786-0 renal.
In assay [2] the test system is A549 NSCLC.
The test system of assay [3] is BT-549 breast.
The test system of assay [4] is CAKI-1 renal.
Assay [5] has as its system COLO 205 colon.
The subject of assay [6] is HOP-92 NSCLC.
The subject of assay [7] is HS 578T breast.
For assay [8], the system named is LOX IMVI melanoma.
The test system of assay [9] is MDA-MB-231 breast.
In assay [10] the test system is NCI-H460 lung.
Assay [11] concerns NCI-H522 lung.
Assay [12] relates to SF-539 CNS.
Assay [13] deals with SK-OV-3 ovarian.
Assay [14] deals with SN12C renal.
Assay [15] concerns SNB-19 CNS.
The test system of assay [16] is T-47D breast.
For assay [17], the system named is UACC-257 melanoma.

On to `O=[N+]([O-])c1ccc(N/N=C/c2ccc(OCCCCCCCCCCCO)cc2)c([N+](=O)[O-])c1`, for which the TGI is 4 µM in [1]; above 38.9 µM in [2]; 15.5 µM in assay [3]; 8.94 µM in assay [4]; 6.24 µM in assay [5]; 14.6 µM in [6]. Also, the TGI is 6.5 µM in assay [7]; 59.7 µM in assay [8]; above 94.7 µM in assay [9]; 12.1 µM in [10]; 9.44 µM in assay [11]; 4.22 µM in assay [12]. Also, the TGI in assay [13] was 11.6 µM; in assay [14] it was 14.3 µM; in assay [15], 27.1 µM; in assay [16] it was above 100 µM; in assay [17], 15.2 µM.
Regarding `CC1=C(C(=O)Nc2ccccc2)C2(CCCCC2)C(C#N)=C(SCC(=O)Nc2ccc(Br)cc2)N1`, the TGI in assay [1] was 13.3 µM; in assay [2], 22.3 µM; in assay [3], 33.4 µM; in assay [4] it was 17.6 µM; in assay [5], 4.53 µM; in [6], 8.44 µM. For the same compound, the TGI in assay [7] came to 44.9 µM; in assay [8] it was 9.96 µM; in [9] it was 27.1 µM; in assay [10], 11.4 µM; in [11] it was 7.25 µM; in assay [12], 32.9 µM. The TGI in [13] was 44.5 µM; in assay [14], 16.6 µM; in [15], above 32.7 µM; in [16], 92.5 µM; in [17], above 43.4 µM.
As for `COc1cc(/C=C/C(=O)C2(C(=O)/C=C/c3cc(OC)c(OC)c(OC)c3)CCCCC2)cc(OC)c1OC`, the TGI was above 100 µM in assay [1]; above 100 µM in assay [2]; 91.9 µM in assay [3]; above 100 µM in assay [4]; above 100 µM in assay [5]; 68 µM in assay [6]. In addition, the TGI in [7] is 89.8 µM; in [8], above 100 µM; in [9], above 100 µM; in [10], above 100 µM; in assay [11], 96.9 µM; in assay [12], 47.8 µM. For the same compound, the TGI in assay [13], in [14], in assay [15], in assay [16] and in assay [17] was above 100 µM in each case.
Turning to `CCCCCCCCCCCCCCCCCCN(C)CC(COP(=O)([O-])OCC[N+](C)(C)C)OC` (centres undefined), the TGI was 14.7 µM in assay [1]; 46.8 µM in assay [2]; above 100 µM in [3]; 20.9 µM in assay [4]; 8.47 µM in [5]; 35.6 µM in [6]. Besides, the TGI was above 85.8 µM in [7]; 26 µM in assay [8]; above 100 µM in [9]; 12.2 µM in [10]; 30.2 µM in assay [11]; 40.3 µM in assay [12]. Besides, the TGI is 27.4 µM in assay [13]; above 50.6 µM in [14]; 18.5 µM in assay [15]; above 100 µM in assay [16]; 56.4 µM in [17].
As to `CC(=O)Nc1ccc(C2SCc3nc4ccccc4n32)cc1` (centres undefined), the TGI in assay [1] was above 100 µM; in assay [2], above 100 µM; in [3], above 74.6 µM; in assay [4], above 100 µM; in [5], above 100 µM; in assay [6], above 100 µM. The TGI in assay [7] was above 95.5 µM; in assay [8], above 100 µM; in [9], above 100 µM; in assay [10], above 100 µM; in assay [11], above 100 µM; in assay [12], above 100 µM. The TGI in [13], in [14], in assay [15], in assay [16] and in [17] was above 100 µM in each case.
Turning to `Cc1cc(C)c(-n2c(-c3ccc(Br)cc3)cs/c2=N\N=C2C=C(C(C)(C)C)C(=O)C(C(C)(C)C)=C2)c(C)c1`, the TGI is above 100 µM in assay [1]; above 100 µM in [2]; above 100 µM in assay [3]; above 100 µM in assay [4]; above 100 µM in assay [5]; above 89.8 µM in assay [6]. In addition, the TGI in [7] was 62.5 µM; in assay [8], above 100 µM; in assay [9] it was above 100 µM; in [10] it was above 100 µM; in assay [11] it was above 100 µM; in [12], above 100 µM. Further, the TGI in [13], in assay [14], in assay [15], in [16] and in assay [17] was above 100 µM in each case.
`CC[C@H](C)[C@@H]1OC(=O)CCNC(=O)[C@@H](C)NC(=O)C(C)(C)C(=O)[C@H](C)NC(=O)[C@H](Cc2ccc(OC)cc2)N(C)C(=O)[C@H](C(C)C)N(C)C(=O)CNC(=O)[C@H](CC(C)C)N(C)C(=O)CNC1=O` (cyclo(G[NMeL]G[NMeV][NMeY](Me)[X32][dA][βAla][Hmpa(2S,3S)])): the TGI was 12.7 µM in assay [1]; above 50 µM in assay [2]; 13.6 µM in assay [3]; 6.49 µM in [4]; 0.0545 µM in assay [5]; 4.61 µM in assay [6]. The TGI in [7] is 20.8 µM; in assay [8], 10.7 µM; in [9], 11.2 µM; in assay [10], above 50 µM; in assay [11] it was above 50 µM; in [12], above 33.6 µM. Further, the TGI in assay [13] was 4.11 µM; in assay [14] it was above 50 µM; in assay [15] it was 9.63 µM; in [16] it was above 50 µM; in assay [17] it was above 25.9 µM.
